According to the NIST ThermoML archive (doi:10.1021/je7006549):

Experiments:
[1] = 101 kPa, Liquid
[2] = mn = molality of the nth substance listed, in mol/kg; conditions: 101 kPa, Liquid

Cc1ccccc1C [1,2-dimethylbenzene]
[1]
Conditions	mass density [kg/m3]	viscosity [mPa·s]
303.15 K	872.1	0.7404
308.15 K	867.7	0.69
313.15 K	864	0.6451
318.15 K	859.7	0.6117
323.15 K	855.5	0.5711
328.15 K	851.2	0.5433
333.15 K	847.1	0.5105

Cc1cccc(C)c1 [1,3-dimethylbenzene]
[1]
Conditions	mass density [kg/m3]	viscosity [mPa·s]
303.15 K	855.6	0.549
308.15 K	851.1	0.5201
313.15 K	846.9	0.4967
318.15 K	842.4	0.4817
323.15 K	838.3	0.444
328.15 K	833.7	0.435
333.15 K	829.6	0.413

Cc1ccc(C)cc1 [1,4-dimethylbenzene]
[1]
Conditions	mass density [kg/m3]	viscosity [mPa·s]
303.15 K	852	0.5726
308.15 K	847.7	0.5374
313.15 K	843.2	0.5178
318.15 K	838.7	0.4882
323.15 K	834.5	0.4595
328.15 K	829.9	0.4439
333.15 K	825.6	0.4189

CC1=CC(=O)c2ccccc2C1=O [2-methyl-1,4-naphthalenedione] + Cc1ccccc1C
[2]
Conditions	mass density [kg/m3]	viscosity [mPa·s]
303.15 K, m1 = 0.0436	873.9	0.7432
303.15 K, m1 = 0.0884	875.8	0.7496
303.15 K, m1 = 0.1326	877.7	0.7581
303.15 K, m1 = 0.1767	879.6	0.7658
303.15 K, m1 = 0.2215	881.6	0.7765
303.15 K, m1 = 0.2656	883.5	0.7833
308.15 K, m1 = 0.0436	869.5	0.6988
308.15 K, m1 = 0.0884	871.4	0.7021
308.15 K, m1 = 0.1326	873.3	0.7081
308.15 K, m1 = 0.1767	875.2	0.7159
308.15 K, m1 = 0.2215	877.2	0.726
308.15 K, m1 = 0.2656	879.1	0.7348
313.15 K, m1 = 0.0436	865.8	0.6532
313.15 K, m1 = 0.0884	867.7	0.6592
313.15 K, m1 = 0.1326	869.6	0.6687
313.15 K, m1 = 0.1767	871.5	0.6742
313.15 K, m1 = 0.2215	873.5	0.681
313.15 K, m1 = 0.2656	875.4	0.6888
318.15 K, m1 = 0.0436	861.5	0.6212
318.15 K, m1 = 0.0884	863.4	0.6256
318.15 K, m1 = 0.1326	865.3	0.6319
318.15 K, m1 = 0.1767	867.2	0.6407
318.15 K, m1 = 0.2215	869.2	0.6473
318.15 K, m1 = 0.2656	871.1	0.6525
323.15 K, m1 = 0.0436	857.3	0.5792
323.15 K, m1 = 0.0884	859.2	0.5832
323.15 K, m1 = 0.1326	861.1	0.5905
323.15 K, m1 = 0.1767	863	0.5967
323.15 K, m1 = 0.2215	865	0.6011
323.15 K, m1 = 0.2656	866.9	0.6087
328.15 K, m1 = 0.0436	853	0.5498
328.15 K, m1 = 0.0884	854.9	0.5531
328.15 K, m1 = 0.1326	856.8	0.5601
328.15 K, m1 = 0.1767	858.7	0.5665
328.15 K, m1 = 0.2215	860.7	0.5706
328.15 K, m1 = 0.2656	862.6	0.5773
333.15 K, m1 = 0.0436	848.9	0.5177
333.15 K, m1 = 0.0884	850.8	0.5202
333.15 K, m1 = 0.1326	852.7	0.5277
333.15 K, m1 = 0.1767	854.6	0.5309
333.15 K, m1 = 0.2215	856.6	0.5358
333.15 K, m1 = 0.2656	858.5	0.5412

CC1=CC(=O)c2ccccc2C1=O [2-methyl-1,4-naphthalenedione] + c1ccccc1
[2]
Conditions	mass density [kg/m3]	viscosity [mPa·s]
303.15 K, m1 = 0.0334	869.4	0.5788
303.15 K, m1 = 0.0889	871.8	0.5842
303.15 K, m1 = 0.1332	873.7	0.588
303.15 K, m1 = 0.1778	875.6	0.5927
303.15 K, m1 = 0.2215	877.5	0.6006
303.15 K, m1 = 0.2681	879.5	0.6063
308.15 K, m1 = 0.0334	863.6	0.5408
308.15 K, m1 = 0.0889	866	0.5443
308.15 K, m1 = 0.1332	867.9	0.5484
308.15 K, m1 = 0.1778	869.8	0.5519
308.15 K, m1 = 0.2215	871.7	0.5598
308.15 K, m1 = 0.2681	873.7	0.5667
313.15 K, m1 = 0.0334	858.4	0.5057
313.15 K, m1 = 0.0889	860.8	0.5096
313.15 K, m1 = 0.1332	862.7	0.5142
313.15 K, m1 = 0.1778	864.6	0.5189
313.15 K, m1 = 0.2215	866.5	0.5242
313.15 K, m1 = 0.2681	868.5	0.5309
318.15 K, m1 = 0.0334	853	0.4782
318.15 K, m1 = 0.0889	855.4	0.4811
318.15 K, m1 = 0.1332	857.3	0.4847
318.15 K, m1 = 0.1778	859.2	0.4893
318.15 K, m1 = 0.2215	861.1	0.4945
318.15 K, m1 = 0.2681	863.1	0.5
323.15 K, m1 = 0.0334	847.7	0.4467
323.15 K, m1 = 0.0889	850.1	0.4489
323.15 K, m1 = 0.1332	852	0.4528
323.15 K, m1 = 0.1778	853.9	0.4566
323.15 K, m1 = 0.2215	855.8	0.461
323.15 K, m1 = 0.2681	857.8	0.4647
328.15 K, m1 = 0.0334	842.1	0.4206
328.15 K, m1 = 0.0889	844.5	0.4235
328.15 K, m1 = 0.1332	846.4	0.4266
328.15 K, m1 = 0.1778	848.3	0.4318
328.15 K, m1 = 0.2215	850.2	0.4347
328.15 K, m1 = 0.2681	852.2	0.4388
333.15 K, m1 = 0.0334	836.8	0.3946
333.15 K, m1 = 0.0889	839.2	0.3967
333.15 K, m1 = 0.1332	841.1	0.4003
333.15 K, m1 = 0.1778	843	0.4069
333.15 K, m1 = 0.2215	844.9	0.4084
333.15 K, m1 = 0.2681	846.9	0.4121

c1ccccc1 [benzene]
[1]
Conditions	mass density [kg/m3]	viscosity [mPa·s]
303.15 K	868	0.564
308.15 K	862.2	0.5232
313.15 K	857	0.5001
318.15 K	851.6	0.4714
323.15 K	846.3	0.4397
328.15 K	840.7	0.4145
333.15 K	835.4	0.3932

c1ccccc1 [benzene] + CC1=CC(=O)c2ccccc2C1=O
[2], m2 = 0
Conditions	mass density [kg/m3]	viscosity [mPa·s]
303.15 K	868	0.564
308.15 K	862.2	0.5232
313.15 K	857	0.5001
318.15 K	851.6	0.4714
323.15 K	846.3	0.4397
328.15 K	840.7	0.4145
333.15 K	835.4	0.3932

CCc1ccccc1 [ethylbenzene]
[1]
Conditions	mass density [kg/m3]	viscosity [mPa·s]
303.15 K	858	0.5986
308.15 K	853.5	0.5691
313.15 K	849.5	0.5372
318.15 K	844.7	0.506
323.15 K	840.5	0.4805
328.15 K	835.9	0.4566
333.15 K	831.6	0.4371

CCc1ccccc1 [ethylbenzene] + CC1=CC(=O)c2ccccc2C1=O
[2], m2 = 0
Conditions	mass density [kg/m3]	viscosity [mPa·s]
303.15 K	858	0.5986
308.15 K	853.5	0.5691
313.15 K	849.5	0.5372
318.15 K	844.7	0.506
323.15 K	840.5	0.4805
328.15 K	835.9	0.4566
333.15 K	831.6	0.4371

Cc1ccccc1 [toluene]
[1]
Conditions	mass density [kg/m3]	viscosity [mPa·s]
303.15 K	857.5	0.5253
308.15 K	852.9	0.4933
313.15 K	847.9	0.4717
318.15 K	843.5	0.4491
323.15 K	838.7	0.4244
328.15 K	834	0.4082
333.15 K	829.1	0.3835

Cc1ccccc1 [toluene] + CC1=CC(=O)c2ccccc2C1=O
[2], m2 = 0
Conditions	mass density [kg/m3]	viscosity [mPa·s]
303.15 K	857.5	0.5253
308.15 K	852.9	0.4933
313.15 K	847.9	0.4717
318.15 K	843.5	0.4491
323.15 K	838.7	0.4244
328.15 K	834	0.4082
333.15 K	829.1	0.3835
